{"source": "patent US12117442B2", "about": "“Methods of screening compounds” (Depixus SAS, priority 2022, dated 2024)", "key": {"pre-miR-21": {"tested_on": "pre-miR-21", "assay": "Dicer binding to pre-miR-21 (unfolding force)", "settings": "20 nM full-length Dicer without magnesium", "procedure": "(§1) Pre-miR-21 and pre-miR-21-bp mutants are used as substrates to measure the effect of Dicer on the folding kinetics. Dicer is a double-strand-specific ribonuclease that binds the pre-miRNAs and cleaves them to generate mature miRNAs. Adding 20 nM of full-length Dicer without magnesium causes the binding of the protein to the structure without further processing of the structure. […] Therefore, the platform described herein is useful for detecting interaction between an RNA scaffold and an RNA binding protein."}, "pre-miR-21-bp mutant": {"tested_on": "pre-miR-21-bp mutant", "assay": "Dicer binding to pre-miR-21-bp mutant", "settings": "20 nM full-length Dicer without magnesium; mutation abolishes bulge", "procedure": "as §1"}, "HIV-1 TAR [1]": {"tested_on": "HIV-1 TAR", "assay": "Ramp experiments (unfolding/refolding force) on HIV-TAR RNA", "type": "binding", "settings": "for effect on unfolding force: adding increasing concentrations", "description": "In a ramp experiment, the nucleic acid (e.g., RNA) molecules are subjected to multiple cycles of slowly increasing and/or decreasing force, and the value at which the molecule unfolds or refolds can be determined from a sudden change in the bead's position. Upon binding, a ligand can cause a change in the unfolding or refolding force if it stabilizes or destabilizes the RNA structure.\nA 59-nucleotide HIV-TAR RNA flanked by RNA/DNA duplexes was attached to a paramagnetic bead on one side and the flowcell on the other end.\nTo investigate whether the platform can distinguish between different KD, three additional small molecules were used that are known to bind to the HIV-1 TAR structure with varying binding affinities (FIG. 2C-2E). […] Above 100 μM of Kanamycin, there is a widening of the force distribution (FIG. 2D)."}, "HIV-1 TAR [2]": {"target": "HIV-1 TAR", "settings": "known binder of HIV-1 TAR; cited from earlier work"}, "[3]": {"target": "preQ1 riboswitch U7C + C15U mutant", "assay": "Ramp analysis, U7C + C15U double mutant preQ1 riboswitch", "type": "binding, Bsu", "settings": "fit of high-force fraction", "description": "(§2) The preQ1 riboswitch has several point substitutions that modify affinity to the preQ1 ligand (FIG. 4A).\n(§3) Having established a reference point, the four different mutants were used to study the effect on preQ1 binding (FIG. 4C-4G). […] The difference could be due to the Mg^2+ used. Nonetheless, the platform was able to distinguish a 3-fold differences in KD, which is less apparent in platforms like SPR or fluorescent titration."}, "WT preQ1 riboswitch": {"target": "WT preQ1 riboswitch", "assay": "Ramp analysis, WT preQ1 riboswitch", "type": "binding, Bsu", "settings": "fit of high-force fraction", "procedure": "The WT preQ1 riboswitch was used as a reference (FIG. 4B). […] The peak around the reference force decreased while there was an increase in the proportion of cycles that have a higher unfolding force. The higher force cycles can represent the binding of the ligand and formation of the pseudoknot. The fraction of cycles that have an unfolding force greater than 95% confidence interval of each bead was calculated in control conditions (FIG. 4B). […] This is similar to the KD calculated in Example 2 from the constant force experiment at 9.6 pN."}, "[4]": {"tested_on": "preQ1 riboswitch C15U mutant", "settings": "C15U versus wt; basis for selecting the mutant; cited from earlier work"}, "[5]": {"tested_on": "preQ1 riboswitch A10G mutant", "settings": "A10G versus wt; basis for selecting the mutant; cited from earlier work"}, "preQ1 riboswitch [6]": {"tested_on": "preQ1 riboswitch", "assay": "Long constant-force experiments at 9.6 pN on preQ1 riboswitch", "type": "binding, Bsu", "procedure": "To study the molecular dynamics of the preQ1 riboswitch using the platform described herein, wild type (WT) Bsu riboswitch was attached to the flowcell as described in Example 1. A step constant-force experiments were then performed, where the molecule is kept at a constant force for a given amount of time before increasing the force in a stepwise manner from lower to higher forces (FIG. 3B). The z position of the bead was recorded and at forces closer to equilibrium, the molecule transitioned between the folded and unfolded state (FIG. 3B). The force was maintained constant for five minutes at the equilibrium force (where the molecule spends as much time in the unfolded versus folded state) and various concentrations of the preQ1 ligand were tested. The binding of the ligand to the structure (arrows shown in representative binding analysis curve of FIG. 3C) was monitored in real time and at the level of the single molecule. A binding which causes the structure to remain in the folded state for more than 3 seconds was recorded. The kon calculated by dividing the number of events observed when the ligand is bound to the RNA structure over the time of experiment at a given concentration of the ligand. The RNA is considered bound to a ligand (here preQ1 ligand) when it stays folded for longer than […]. By testing different concentrations, the kon of the molecule was measured (FIG. 3D). […] For each force, the raw data was fitted to two different states using Hidden Markov model (FIG. 3B), and the fraction of time for which each molecule is present at the folded state was calculated over the time at each force step. The fraction was plotted against the force for each step, and the equilibrium force (inflection point) was determined for each molecule when the molecule spent 50% of the time at each state (FIG. 3F). The half-width of the force can also be determined by calculating 1/e (e=Euler's number) on either side of the inflection point, which indicates the force range where the molecule is bistable and transitions from folded and unfolded state (FIG. 3F). […]"}, "[7]": {"tested_on": "preQ1 riboswitch U6C mutant", "assay": "Ramp analysis, U6C mutant preQ1 riboswitch", "type": "binding, Bsu", "settings": "no KD from fitting maximum density or high-force density", "description": "as §2"}, "[8]": {"tested_on": "preQ1 riboswitch U6C mutant", "settings": "U6C versus WT; basis for selecting the mutant; cited from earlier work"}, "[9]": {"tested_on": "preQ1 riboswitch A10G mutant", "assay": "Ramp analysis, A10G mutant preQ1 riboswitch", "type": "binding, Bsu", "description": "as §2\nWith this mutant, the whole distribution was shifted towards higher forces, instead of having two different fractions (FIG. 4E). […] The constant-force step experiment also reflected the changes in the equilibrium force in micromolar range (FIG. 4F)."}, "[10]": {"tested_on": "wild type (WT) Bsu preQ1 riboswitch", "assay": "Step constant-force experiments on WT preQ1 riboswitch", "type": "binding", "description": "In a Constant-Force Experiment, the nucleic acid molecules are subjected to the same force for a certain amount of time before it is increased in a stepwise manner. The equilibrium force is the point at which the molecule spends equal time in both folded and unfolded states. Ligand binding at this force can cause a change in the dynamics of folding and unfolding.\nTo study the molecular dynamics of the preQ1 riboswitch using the platform described herein, wild type (WT) Bsu riboswitch was attached to the flowcell as described in Example 1. A step constant-force experiments were then performed, where the molecule is kept at a constant force for a given amount of time before increasing the force in a stepwise manner from lower to higher forces (FIG. 3B). The z position of the bead was recorded and at forces closer to equilibrium, the molecule transitioned between the folded and unfolded state (FIG. 3B). The force was maintained constant for five minutes at the equilibrium force (where the molecule spends as much time in the unfolded versus folded state) and various concentrations of the preQ1 ligand were tested. The binding of the ligand to the structure (arrows shown in representative binding analysis curve of FIG. 3C) was monitored in real time and at the level of the single molecule. A binding which causes the structure to remain in the folded state for more than 3 seconds was recorded. The kon calculated by dividing the number of events observed when the ligand is bound to the RNA structure over the time of experiment at a given concentration of the ligand. The RNA is considered bound to a ligand (here preQ1 ligand) when it stays folded for longer than 3.3 seconds. By testing different concentrations, the kon of the molecule was measured (FIG. 3D). The koff is inverse of the length of time when the RNA structure is bound by a ligand. Accordingly, a duration, when the ligand left the RNA structure (star) as the RNA structure went back to rapid transition between folded and unfolded state, was observed. The duration of this folded state allows to measure the koff of the ligand (FIG. 3E). The kon is dependent on the ligand concentration whereas the koff is not. For each force, the raw data was fitted to two different states using Hidden Markov model (FIG. 3B), and the fraction of time for which each molecule is present at the folded state was calculated over the time at each force step. The fraction was plotted against the force for each step, and the equilibrium force (inflection point) was determined for each molecule when the molecule spent 50% of the time at each state (FIG. 3F). The half-width of the force can also be determined by calculating 1/e (e=Euler's number) on either side of the inflection point, which indicates the force range where the molecule is bistable and transitions from folded and unfolded state (FIG. 3F). The transition frequency was calculated for each of the force steps recorded and plotted again the normalized force, corresponding to the equilibrium force for each bead in control conditions (FIG. 3G).\nFor the subsequent experiments, 1 mM Mg^2+ was added in all buffers.\nTo study the effect of preQ1 ligand binding to the riboswitch, constant-force step experiments were performed with increasing concentration of preQ1 ligand (FIG. 3B)."}, "[11]": {"tested_on": "preQ1 riboswitch U7C + C15U mutant", "settings": "U7C + C15U versus wt; basis for selecting the mutant; cited from earlier work"}, "[12]": {"target": "preQ1 riboswitch C15U mutant", "assay": "Ramp analysis, C15U mutant preQ1 riboswitch", "type": "binding, Bsu", "settings": "fit of high-force fraction", "description": "as §2, §3"}, "preQ1 riboswitch [13]": {"target": "preQ1 riboswitch", "settings": "comparison result obtained by smFRET; cited from earlier work"}, "[14]": {"settings": "fit of changes in unfolding force, ramp experiments, read-out: calculated KD"}, "[15]": {"settings": "1 μM preQ1 ligand, lesser extent than 1 mM Mg^2+"}, "[16]": {"settings": "increasing concentrations of preQ1, 1 mM Mg^2+ in buffers"}}, "note": "pKd, pKi: −log10 of the molar value. Like-named read-outs stand apart in the source and are kept apart here.", "data": [{"compound": "Dicer: double-strand-specific ribonuclease that binds the pre-miRNAs and cleaves them to generate mature miRNAs", "values": [{"measurement": "effect of binding on unfolding force", "setting": "pre-miR-21", "value": "increase in the unfolding force"}, {"measurement": "binding to mutant", "setting": "pre-miR-21-bp mutant", "value": "does not occur"}]}, {"compound": "N=C(N)NCCC[C@H](N)C(N)=O", "note": "[argininamide]", "values": [{"measurement": "effect on unfolding and refolding force", "setting": "HIV-1 TAR [1]; 10 mM", "value": "increased both the unfolding and refolding force"}, {"measurement": "effect on unfolding force", "setting": "HIV-1 TAR [1]", "value": "increased the unfolding force"}, {"measurement": "pKd", "setting": "HIV-1 TAR [1]; fit of normalized force at maximum unfolding distribution for each bead, read-out: KD", "value": 2.27}]}, {"compound": "CCN[C@@H]1C[C@H](N)[C@@H](O[C@H]2OC(CN)=CC[C@H]2N)[C@H](O)[C@H]1O[C@H]1OC[C@](C)(O)[C@H](NC)[C@H]1O", "note": "[Netilmicin]", "values": [{"measurement": "effect on unfolding force", "setting": "HIV-1 TAR [1]", "value": "increase in the unfolding force"}, {"measurement": "pKd", "setting": "HIV-1 TAR [1]; [14]", "value": "~4.87"}, {"measurement": "pKd", "setting": "HIV-1 TAR [2]", "value": 5.85}, {"measurement": "pKi", "setting": "HIV-1 TAR [2]", "value": "~4.85"}]}, {"compound": "NCc1c[nH]c2nc(N)[nH]c(=O)c12", "note": "[preQ1]", "values": [{"measurement": "pKd", "setting": "[3]", "value": 7.75}, {"measurement": "pKd", "setting": "WT preQ1 riboswitch", "value": 7.06}, {"measurement": "Effect of mutation on binding affinity", "setting": "[4]", "value": "Increase versus wt"}, {"measurement": "Effect of mutation on binding affinity", "setting": "[5]", "value": "Decrease versus wt"}, {"measurement": "Kon", "setting": "preQ1 riboswitch [6]; 9.6 pN, fit of attachment rate", "value": "0.0015 ^−1 nM^−1"}, {"measurement": "Koff", "setting": "preQ1 riboswitch [6]; 9.6 pN, one per mean time of ligand-bound event", "value": 0.11, "unit": "s⁻¹"}, {"measurement": "pKd", "setting": "preQ1 riboswitch [6]; calculated by Koff/Kon", "value": 7.14}, {"measurement": "ligand binding", "setting": "[7]", "value": "abolished the ligand binding"}, {"measurement": "Effect of mutation on binding affinity", "setting": "[8]", "value": "Abolished versus WT"}, {"measurement": "increase in KD compared with WT", "setting": "[9]; A10G versus WT", "value": "~400", "unit": "fold"}, {"measurement": "pKd", "setting": "[9]; A10G, fit of maximum unfolding force density for each bead", "value": 4.46}, {"measurement": "effect of ligand and cation together", "setting": "[10]; 1 μM preQ1 ligand plus 1 mM Mg^2+", "value": "additive effect"}, {"measurement": "effect on transition frequency", "setting": "[10]; [15]", "value": "decreased transition frequency"}, {"measurement": "effect on unfolding equilibrium force", "setting": "[10]; [15]", "value": "increased the unfolding equilibrium force"}, {"measurement": "pKd", "setting": "[10]; fit of equilibrium force at each concentration", "value": 6.79}, {"measurement": "effect on equilibrium force", "setting": "[10]; [16]", "value": "increased equilibrium force"}, {"measurement": "effect on transition frequency", "setting": "[10]; [16]", "value": "decreased the transition frequency"}, {"measurement": "Effect of mutation on binding affinity", "setting": "[11]", "value": "Greatly Increase versus wt"}, {"measurement": "pKd", "setting": "[12]", "value": 8.27}, {"measurement": "pKd", "setting": "preQ1 riboswitch [13]", "value": 6.87}]}, {"compound": "[Mg+2]", "note": "[Mg^2+]", "values": [{"measurement": "effect on transition frequency at equilibrium force", "setting": "[10]; 1 mM Mg^2+ alone, no ligand", "value": "transition frequency decreased"}, {"measurement": "effect on unfolding equilibrium force", "setting": "[10]; 1 mM Mg^2+ alone, no ligand", "value": "increased the unfolding equilibrium force"}]}, {"compound": "Cc1ccc2c(N)c(C(=O)Nc3cccc(C(F)(F)F)c3)sc2n1", "note": "[Compound 4, 3-Amino-6-methyl-N-(3-(trifluoromethyl)phenyl)thieno[2,3-b]pyridine-2-carboxamide]", "values": [{"measurement": "effect on unfolding force", "setting": "HIV-1 TAR [1]", "value": "decrease in the unfolding force"}, {"measurement": "pKd", "setting": "HIV-1 TAR [1]; [14]", "value": 5.52}, {"measurement": "pKd", "setting": "HIV-1 TAR [2]", "value": 5.62}]}]}
